Data reported in patent US20120184542A1, “PYRIDO PYRIMIDINES” (priority 2011, published 2012).
Counter-ions that a name gives are not always drawn. Like-named read-outs stand apart in the source and are kept apart here.

What was measured:
[1] = molecular target: T1, Human DYRK1B (Homo sapiens, UniProt Q9Y463); assay: DYRK1B Kinase TR-FRET (IMAP-Tb) Assay; type: biochemical; conditions: TR-FRET (IMAP-Tb), ATP 70 μM, 37° C. 60 minutes
T1 construct: purchased Invitrogen PR8350B (former PV4649)

[2] = molecular target: T2, Human DYRK1A (Homo sapiens, UniProt Q13627); assay: DYRK1A Kinase TR-FRET (IMAP-Tb) Assay; type: biochemical; conditions: TR-FRET (IMAP-Tb); ATP 70 μM; 37° C. 60 minutes; read-out: Enzyme IC50 (μM) DYRK1A
T2 construct: purchased Invitrogen PV3997
How it was run: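 Recombinant human DYRK1A phosphorylated fluorescent substrate peptide (1.0 μM) with ATP in 10 mM HEPES pH 7.0, 50 mM NaCl, 5 mM MgCl2, 1 mM DTT, 1 mM NaVO4, 0.02% BSA for 60 min at 37 °C. Phosphopeptide detected by IMAP terbium TR-FRET; IC50 reported.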

[3] = test system: SW620 human colon cancer cells; assay: SW620 Cell Viability Assay; type: cell-based; conditions: read-out: Cellular EC50 (μM) SW620
Description: Some cells (S—) were allowed to attach for 24 hrs, serum starved for 48 hrs, and then followed with drug treatments Test Compound Solutions were Prepared in Regular Corresponding Media Supplemented with Serum 2. […] Viability Assay: This assay was performed as follows: • Transfer 50 μL of test compound solution per well from the test compound plate onto the cell plate prepared in Step #1. • Mix the plate with treated cells by pipetting up and down three times with 200 μL multi-channel pipette. • Incubate the cells in 5% CO2 incubator @ 37° C. for 4 days. • Run the CellTiter-Glo™ Luminescent Cell Viability Assay.

[4] = read-out: Enzyme IC50 (μM) DYRK1B
[5] = Homo sapiens, SW-620, 96 h, CellTiter-Glo, 4 days incubation

T1 sequence (Q9Y463 whole entry): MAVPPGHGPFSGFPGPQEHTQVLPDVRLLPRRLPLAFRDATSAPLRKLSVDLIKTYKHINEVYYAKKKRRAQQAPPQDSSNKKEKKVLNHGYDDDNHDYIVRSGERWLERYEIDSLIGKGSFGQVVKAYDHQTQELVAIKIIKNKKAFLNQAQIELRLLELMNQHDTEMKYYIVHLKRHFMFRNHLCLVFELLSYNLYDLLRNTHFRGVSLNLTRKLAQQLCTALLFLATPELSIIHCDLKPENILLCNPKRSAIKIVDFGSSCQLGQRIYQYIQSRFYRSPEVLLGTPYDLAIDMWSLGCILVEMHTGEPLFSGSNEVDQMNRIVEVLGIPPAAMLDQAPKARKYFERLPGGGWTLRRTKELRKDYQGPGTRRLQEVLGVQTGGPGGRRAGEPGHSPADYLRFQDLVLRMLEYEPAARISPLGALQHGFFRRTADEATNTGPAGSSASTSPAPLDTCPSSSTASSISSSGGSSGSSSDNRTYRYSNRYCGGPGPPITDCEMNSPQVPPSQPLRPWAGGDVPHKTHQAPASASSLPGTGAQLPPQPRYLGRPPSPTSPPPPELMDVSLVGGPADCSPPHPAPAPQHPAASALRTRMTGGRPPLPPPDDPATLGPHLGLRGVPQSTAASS

SMILES	IC50 [1, 4]	IC50 [2]	EC50 [3, 5]	EC50 ([3]; CellTiter-Glo, 4 days incubation, hydrochloride)	EC50 ([3]; Homo sapiens, SW-620, 96 h)	IC50 ([1]; Enzyme IC50 (μM) DYRK1B)
O=C(NCc1cccc(Cl)c1)c1ccc(Cl)c(NC(=O)c2cc3cnc(NCCCN4CCOCC4)nc3[nH]c2=O)c1 [Example 90, 2-(3-Morpholin-4-yl-propylamino)-7-oxo-7,8-dihydro-pyrido[2,3-d]pyrimidine-6-carboxylic acid [2-chloro-5-(3-chloro-benzylcarbamoyl)-phenyl]amide]	0.0523 µM	0.0113 µM	0.312 µM			
O=C(NCc1cccc(Cl)c1)c1ccc(Cl)c(NC(=O)c2cc3cnc(N[C@H]4CC[C@H](O)CC4)nc3[nH]c2=O)c1 [Example 94, 2-(4-Hydroxy-cyclohexylamino)-7-oxo-7,8-dihydro-pyrido[2,3-d]pyrimidine-6-carboxylic acid [2-chloro-5-(3-chloro-benzylcarbamoyl)-phenyl]amide]	0.0622 µM	0.0245 µM	1.13 µM			
NCCC(NC(=O)c1ccc(Cl)c(NC(=O)c2cc3cnc(N4C[C@H]5CC[C@@H](C4)O5)nc3[nH]c2=O)c1)c1ccccc1 (stereo partly drawn) [Example 183, 2-(1R,5S)-8-Oxa-3-aza-bicyclo [3.2.1]oct-3-yl-7-oxo-7,8-dihydro-pyrido[2,3-d]pyrimidine-6-carboxylic acid [5-(3-amino-1-phenyl-propylcarbamoyl)-2-chloro-phenyl]amide; hydrochloride]	0.0077 µM	0.0046 µM	0.027 µM			
CN1CCN(CCCNc2ncc3cc(C(=O)Nc4cc(C(=O)NCc5cccc(Cl)c5)ccc4Cl)c(=O)[nH]c3n2)CC1 [Example 102, 2-[3-(4-Methyl-piperazin-1-yl)-propylamino]-7-oxo-7,8-dihydro-pyrido[2,3-d]pyrimidine-6-carboxylic acid [2-chloro-5-(3-chloro-benzylcarbamoyl)-phenyl]-amide hydrochloride]	0.047 µM	0.0356 µM		0.0531 µM		
COc1nc(C)c2cc(C(=O)Nc3cc(C(=O)NC(CN)c4ccccc4)ccc3Cl)c(=O)[nH]c2n1 (centres unmarked) [Example 170, N-(5-(2-Amino-1-phenylethylcarbamoyl)-2-chlorophenyl)-2-methoxy-4-methyl-7-oxo-7,8-dihydropyrido[2,3-d]pyrimidine-6-carboxamide 2,2,2-trifluoroacetate]	0.117 µM	0.0164 µM	3.21 µM			
CC(=O)N1CCN(c2ncc3cc(C(=O)Nc4cc(C(=O)NCc5cccc(Cl)c5)ccc4Cl)c(=O)[nH]c3n2)CC1 [Example 108, 2-(4-Acetylpiperazin-1-yl)-N-(2-chloro-5-(3-chlorobenzylcarbamoyl)phenyl)-7-oxo-7,8-dihydropyrido[2,3-d]pyrimidine-6-carboxamide]	0.056 µM	0.114 µM	0.528 µM			
NC1CCN(c2ncc3cc(C(=O)Nc4cc(C(=O)NC(CCO)c5ccccc5)ccc4Cl)c(=O)[nH]c3n2)CC1 (centres unmarked) [Example 148, 2-(4-Aminopiperidin-1-yl)-N-(2-chloro-5-(3-hydroxy-1-phenylpropylcarbamoyl)phenyl)-7-oxo-7,8-dihydropyrido[2,3-d]pyrimidine-6-carboxamide hydrochloride]	0.321 µM	0.15 µM	0.069 µM			
COc1ncc2cc(C(=O)Nc3cc(C(=O)NC4(c5ccccc5)CCNCC4)ccc3Cl)c(=O)[nH]c2n1 [Example 166, N-(2-Chloro-5-(4-phenylpiperidin-4-ylcarbamoyl)phenyl)-2-methoxy-7-oxo-7,8-dihydropyrido[2,3-d]pyrimidine-6-carboxamide]	1.89 µM		> 10 µM			
COc1ncc2cc(C(=O)Nc3cc(C(=O)N[C@@H](CCN)c4ccccc4)ccc3Cl)c(=O)[nH]c2n1 [Example 176, (S)—N-(5-(3-Amino-1-phenylpropylcarbamoyl)-2-chlorophenyl)-2-methoxy-7-oxo-7,8-dihydropyrido[2,3-d]pyrimidine-6-carboxamide]	1.15 µM				> 1 µM	
COc1ncc2cc(C(=O)Nc3cc(C(=O)NC(CCN)c4cccc(Cl)c4)ccc3Cl)c(=O)[nH]c2n1 (centres unmarked) [Example 84, 2-Methoxy-7-oxo-7,8-dihydro-pyrido[2,3-d]pyrimidine-6-carboxylic acid {5-[3-amino-1-(3-chloro-phenyl)-propylcarbamoyl]-2-chloro-phenyl}-amide]					0.235 µM	0.0108 µM
CN1CCN(CCNc2ncc3cc(C(=O)Nc4cc(C(=O)NC(CCN)c5ccccc5)ccc4Cl)c(=O)[nH]c3n2)CC1 (centres unmarked) [Example 132, N-(5-(3-Amino-1-phenylpropylcarbamoyl)-2-chlorophenyl)-2-(2-(4-methylpiperazin-1-yl)ethylamino)-7-oxo-7,8-dihydropyrido[2,3-d]pyrimidine-6-carboxamide hydrochloride]					0.228 µM	0.0306 µM
COc1ncc2cc(C(=O)Nc3cc(C(=O)NCCCN)ccc3Cl)c(=O)[nH]c2n1 [Example 164, N-(5-(3-Aminopropylcarbamoyl)-2-chlorophenyl)-2-methoxy-7-oxo-7,8-dihydropyrido[2,3-d]pyrimidine-6-carboxamide]	0.774 µM				> 10 µM	
COc1ncc2cc(C(=O)Nc3cc(C(N)=O)ccc3Cl)c(=O)[nH]c2n1 [Example 88, 2-Methoxy-7-oxo-7,8-dihydro-pyrido[2,3-d]pyrimidine-6-carboxylic acid (5-carbamoyl-2-chloro-phenyl)-amide]					> 10 µM	0.0749 µM
COc1ncc2cc(C(=O)Nc3cc(C(=O)NC(CCN)c4ccccc4)ccc3Cl)c(=O)[nH]c2n1 (centres unmarked) [Example 76, 2-Methoxy-7-oxo-7,8-dihydro-pyrido[2,3-d]pyrimidine-6-carboxylic acid [5-(3-amino-1-phenyl-propylcarbamoyl)-2-chloro-phenyl]-amide]	0.0128 µM				0.657 µM	
CNC(=O)c1ccc(Cl)c(NC(=O)c2cc3cnc(OC)nc3[nH]c2=O)c1 [Example 78, 2-Methoxy-7-oxo-7,8-dihydro-pyrido[2,3-d]pyrimidine-6-carboxylic acid (2-chloro-5-methylcarbamoyl-phenyl)-amide]					2.52 µM	0.248 µM
COc1ncc2cc(C(=O)Nc3cc(C(=O)N[C@H](CN)c4ccccc4)ccc3Cl)c(=O)[nH]c2n1 [Example 133, (S)—N-(5-(2-Amino-1-phenylethylcarbamoyl)-2-chlorophenyl)-2-methoxy-7-oxo-7,8-dihydropyrido[2,3-d]pyrimidine-6-carboxamide]	0.0365 µM				0.738 µM	
COC(=O)c1ccc(C)c(NC(=O)c2cc3cnc(OC)nc3[nH]c2=O)c1 [Example 19, 3-[(2-Methoxy-7-oxo-7,8-dihydro-pyrido[2,3-d]pyrimidine-6-carbonyl)-amino]-4-methyl-benzoic acid methyl ester]					92.5 µM	0.252 µM
COc1ncc2cc(C(=O)Nc3cc(C(=O)NC(CN)c4ccccc4)ccc3Cl)c(=O)[nH]c2n1 (centres unmarked) [Example 72, 2-Methoxy-7-oxo-7,8-dihydro-pyrido[2,3-d]pyrimidine-6-carboxylic acid [5-(2-amino-1-phenyl-ethylcarbamoyl)-2-chloro-phenyl]-amide]	0.00935 µM				0.828 µM	
COc1ncc2cc(C(=O)Nc3cc(C(=O)NC(CCN(C)C)c4cccc(Cl)c4)ccc3Cl)c(=O)[nH]c2n1 (centres unmarked) [Example 96, 2-Methoxy-7-oxo-7,8-dihydro-pyrido[2,3-d]pyrimidine-6-carboxylic acid {2-chloro-5-[1-(3-chloro-phenyl)-3-dimethylamino-propylcarbamoyl]-phenyl}-amide]	0.233 µM				1.97 µM	
COc1ncc2cc(C(=O)Nc3cc(C(=O)NCc4cccs4)ccc3Cl)c(=O)[nH]c2n1 [Example 57, 2-Methoxy-7-oxo-7,8-dihydro-pyrido[2,3-d]pyrimidine-6-carboxylic acid {2-chloro-5-[(thiophen-2-ylmethyl)-carbamoyl]-phenyl}-amide]					2.41 µM	0.096 µM
COc1ncc2cc(C(=O)Nc3cc(C(=O)NCc4ccccc4)ccc3Cl)c(=O)[nH]c2n1 [Example 31, 2-Methoxy-7-oxo-7,8-dihydro-pyrido[2,3-d]pyrimidine-6-carboxylic acid (5-benzylcarbamoyl-2-chloro-phenyl)-amide]					> 100 µM	0.048 µM
COC(=O)c1ccc(Cl)c(NC(=O)c2cc3cnc(OC)nc3[nH]c2=O)c1 [Example 21, 4-Chloro-3-[(2-methoxy-7-oxo-7,8-dihydro-pyrido[2,3-d]pyrimidine-6-carbonyl)-amino]-benzoic acid methyl ester]					3.34 µM	0.135 µM
COc1ncc2cc(C(=O)Nc3cc(C(=O)N[C@H](CCN)c4ccccc4)ccc3Cl)c(=O)[nH]c2n1 [Example 171, (R)—N-(5-(3-Amino-1-phenylpropylcarbamoyl)-2-chlorophenyl)-2-methoxy-7-oxo-7,8-dihydropyrido[2,3-d]pyrimidine-6-carboxamide]	0.017 µM				0.446 µM	
